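Briefly, cells in 96-well plates were exposed to five compound concentrations for 48 h, and endpoints were estimated by linear interpolation. GI50 is the concentration that inhibits growth by half.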 Active and inactive are the calls of the source. Cut-off read from the data, not from the text of the source: active = GI50 up to about 1.1 µM and inactive = higher.
Assays:
Assay in all cases: NCI anticancer screen, dose series, 48 h
[1] = test system: HT-29
[2] = test system: SF-295
[3] = test system: SNB-75
[4] = test system: OVCAR-8
[5] = test system: NCI/ADR-RES
[6] = test system: HCC 2998
[7] = test system: EKVX
[8] = test system: U-251
[9] = test system: PC-3
[10] = test system: K562
[11] = test system: CAKI-1
[12] = test system: DU-145
[13] = test system: SN12C
[14] = test system: OVCAR-4
[15] = test system: UO-31
[16] = test system: SR
[17] = test system: SW-620
[18] = test system: HOP-92
[19] = test system: RXF 393
[20] = test system: RPMI-8226

SMILES	GI50 [1]	GI50 [2]	GI50 [3]	GI50 [4]	GI50 [5]	GI50 [6]	GI50 [7]	GI50 [8]	GI50 [9]	GI50 [10]	GI50 [11]	GI50 [12]	GI50 [13]	GI50 [14]	GI50 [15]	GI50 [16]	GI50 [17]	GI50 [18]	GI50 [19]	GI50 [20]
c1ccc2oc(-c3ccc(-c4nc5ccccc5o4)c4c3CC4)nc2c1	> 100 µM (inactive)	> 100 µM (inactive)	> 100 µM (inactive)	> 100 µM (inactive)	> 100 µM (inactive)	> 100 µM (inactive)	> 100 µM (inactive)	> 100 µM (inactive)	> 100 µM (inactive)	> 100 µM (inactive)	> 100 µM (inactive)	> 100 µM (inactive)	> 100 µM (inactive)	> 100 µM (inactive)	> 100 µM (inactive)	> 100 µM (inactive)	> 100 µM (inactive)	> 100 µM (inactive)	> 100 µM (inactive)	> 100 µM (inactive)
N#Cc1sc2c(c1OC(=O)c1ccc(Cl)cc1Cl)c(=O)n(-c1ccccc1)c(=S)n2-c1ccccc1	18.2 µM (inactive)	28.2 µM (inactive)	20.8 µM (inactive)	19.9 µM (inactive)	16.8 µM (inactive)	29.2 µM (inactive)	31.8 µM (inactive)	15.4 µM (inactive)	25.4 µM (inactive)	17.1 µM (inactive)	23.7 µM (inactive)	36.1 µM (inactive)	21.8 µM (inactive)	21.5 µM (inactive)	0.13 µM (active)	> 100 µM (inactive)	24.5 µM (inactive)	20.2 µM (inactive)	19.8 µM (inactive)	31.7 µM (inactive)
CC[S+]([O-])c1c2cc(OC)ccc2nc2ccc(OC)cc12 (stereo not given)	4.09 µM (inactive)	27.1 µM (inactive)	21 µM (inactive)	5.55 µM (inactive)	20.4 µM (inactive)	16.6 µM (inactive)	16.9 µM (inactive)	16.7 µM (inactive)	10.7 µM (inactive)	2.42 µM (inactive)	5.06 µM (inactive)	2.59 µM (inactive)	4.58 µM (inactive)	17 µM (inactive)	4.82 µM (inactive)	3.51 µM (inactive)	6.84 µM (inactive)	7.16 µM (inactive)	4.71 µM (inactive)	3.45 µM (inactive)
CC12CC(=O)Nc3ccccc3N1C(c1ccccc1)=NO2 (stereo not given)	> 100 µM (inactive)	> 100 µM (inactive)	> 100 µM (inactive)	> 100 µM (inactive)	> 100 µM (inactive)	> 100 µM (inactive)	> 100 µM (inactive)	> 100 µM (inactive)	> 100 µM (inactive)	> 100 µM (inactive)	> 100 µM (inactive)	> 100 µM (inactive)	> 100 µM (inactive)	> 100 µM (inactive)	> 100 µM (inactive)	> 100 µM (inactive)	> 100 µM (inactive)	> 100 µM (inactive)	> 100 µM (inactive)	> 100 µM (inactive)
Cc1c(/N=C\c2ccc(N(CCC#N)CCC#N)cc2)c(=O)n(-c2ccccc2)n1C	> 100 µM (inactive)	25.7 µM (inactive)	20.7 µM (inactive)	> 100 µM (inactive)	> 100 µM (inactive)	> 100 µM (inactive)	> 93.5 µM (inactive)	39.2 µM (inactive)	> 100 µM (inactive)	> 100 µM (inactive)	> 100 µM (inactive)	> 100 µM (inactive)	> 93.5 µM (inactive)	> 100 µM (inactive)	> 100 µM (inactive)	> 100 µM (inactive)	> 100 µM (inactive)	45.7 µM (inactive)	24 µM (inactive)	> 100 µM (inactive)
COc1ccc(OC)c(N2C(=O)/C(=C\c3ccccc3)SC2c2cc(OC)c(OC)c(OC)c2)c1 (stereo not given)	> 87.3 µM (inactive)	47.5 µM (inactive)	26.2 µM (inactive)	> 100 µM (inactive)	> 71.3 µM (inactive)	> 100 µM (inactive)	> 83.6 µM (inactive)	> 100 µM (inactive)	> 89.5 µM (inactive)	50.9 µM (inactive)	> 84.3 µM (inactive)	> 100 µM (inactive)	> 100 µM (inactive)	> 91.8 µM (inactive)	> 89.7 µM (inactive)	33.7 µM (inactive)	46.6 µM (inactive)	17.5 µM (inactive)	11.6 µM (inactive)	71.4 µM (inactive)
O=C(/C=C1\C[C@H]2C=Nc3ccccc3C(=O)N2C1)NCCCNC(=O)/C=C1\C[C@H]2C=Nc3ccccc3C(=O)N2C1	16.4 µM (inactive)	19 µM (inactive)	16.2 µM (inactive)	18.6 µM (inactive)	23.3 µM (inactive)	20.2 µM (inactive)	19.8 µM (inactive)	13.6 µM (inactive)	17.6 µM (inactive)	5.96 µM (inactive)	13.3 µM (inactive)	18.5 µM (inactive)	18 µM (inactive)	18.2 µM (inactive)	14.7 µM (inactive)	2.11 µM (inactive)	5.51 µM (inactive)	20 µM (inactive)	13.6 µM (inactive)	10.1 µM (inactive)

Reference: ChEMBL document CHEMBL1201862, “PubChem BioAssay data set” (2004)
